Where a SMILES comes first, the peptide text is derived from it. [ ]: non-standard residue; d: D form. The star is where a group is joined. Pro(3S-CH2tBu) = CC(C)(C)C[C@H]1CCN[C@@H]1C(=O)O; X4 = CN(Cc1ccccc1)C(=O)/C=C/C(=O)N(CC(=O)O)N*; X3 = O=C(O)CN(N*)C(=O)COc1c(F)cccc1F; Quinaldoyl = O=C(c1ccc2ccccc2n1)*; X1 = c1ncc(CO*)s1
Tested on: hippocampal neurons intoxicated with Aβ1-42 oligomers
Test: Protection against Abeta neurotoxicity in primary hippocampal neurons in microfluidic chambers
Type: cell-based, mice
Parameters: key to Protective effect against Aβ toxicity: +: significant protection against a Aβ-induced cell death, Aβ-induced axonal degeneration, Aβ-induced electrophysiological dysfunction, and/or Aβ-induced synapse loss
Conditions: for Protective effect against Aβ toxicity: hippocampal cells pre-incubated 1 h, then Aβ1-42 oligomers
Text: Hippocampus are micro-dissected from E16 embryos of C57B16/J wt mice (Rene Janvier, France) in cold Gey's Balanced Salt Solution (GBSS, Sigma) supplemented with 0.1% glucose (Life technologies).
Dissected structures are digested with papain (20 U/ML in DMEM, Sigma; St. Louis, Mo., USA) and mechanically dissociated in the presence of DNAse. Hippocampal cells are then rinsed and re-suspended in DMEM (Life Technologies, Inc., Gaithersburg, Md., USA) to a final density of 18 million cells/ml in Neurobasal (Life technologies) and Glutamax (0.1% LifeTechnologies) supplemented with B27 (1/50) and penicilline/sptreptomycine 1% (Gibco).
This cell suspension is then used to fill the reservoirs of microfluidic chambers, as described (Peyrin et al, 2011 Lab Chips 11(21):3663; Deleglise et al, 2014 Acta Neuropathologica Comm. 2: 145). Microfluidic chips are placed in plastic Petri dishes containing H20-EDTA to prevent evaporation and incubated at 37° C. in a humid 5% CO2 atmosphere. The culture medium is renewed every seven days.
Oligomeric form of Aβ1-42 (Tocris Bioscience, MN, USA), is produced according to Stine W B et al (2003) in J Biol Chem 278, pp 11612-11622 and can be controlled by electron microscopy as in Deleglise B et al. in Acta Neuropathol Commun. 2014; 2: 145).
Briefly, Aβ1-42 lyophilized peptides are solubilized at 1 mM in 1, 1, 1, 3, 3, 3,-hexafluoro-2-propanol (HFIP, Sigma Aldrich). After 30 min of incubation at RT, HFIP is evaporated for 12 h under chemical hood and peptides are dried for 1 h (with a Speed Vac at 4° C.). Then, 5 mM Aβ peptide stock solutions are obtained by resolubilization at in dimethylsulfoxide (DMSO, Sigma Aldrich). To obtain oligomers, Aβ peptide stock solution is diluted in cold phenol free DMEM-F12 medium (Life Technologies) to a final concentration of 100 μM. The solution is then incubated 24 h at 4° C. Soluble Aβ oligomer fraction is collected from the supernatant after a centrifugation step at 20 000 g (10 min; 4° C.), and stored at −80° C. until use.
After 18 days of culture in micro fluidic chambers, hippocampal cells are pre-incubated for 1 h with compounds of the invention prior diluted in phenol free DMEM-F12 medium or in phenol free DMEM-F12 medium alone as a control solution. Cells are then intoxicated for 3 h to 6 h or 24 h with 10 or 100 nm of Aβ1-42 oligomers (or with phenol free DMEM-F12 medium alone as a control solution). After the intoxication step, cells are fixed in 4% paraformaldehyde (PFA, Sigma; St. Louis, Mo., USA) for 20 min RT, and labelled as explained below to evaluate synapses status, cell death or axonal degeneration.
Briefly, after the fixation step, cultures cells are washed twice with PBS+Azide 0.1% for 5 min and permeabilized for 10 min with 0.2% Triton X-100 and 0.1% BSA (Bovine Serum Albumin, Sigma) in PBS+Azide 0.1%. Saturation step is then realized by incubating cells during 30 min in PBS+Azide 0.1%+BSA1%. Primary antibodies are then added and the samples incubated at 4° C. overnight in PBS. Afterwards, samples are rinsed twice for 5 min with PBS+Azide 0.1% and further incubated with the corresponding secondary antibody together with phalloidin conjugated to Alexa Fluor 555 for 2 h RT. The chips were then rinsed twice with PBS+Azide 0.1%.
The following antibodies are used: rabbit polyclonal anti-MAP-2 (AB5622; 1/400, MILLIPORE), mouse monoclonal Anti-Bassoon SAP7F407; 1:400, Enzo LifeSciences). Species-specific secondary antibodies coupled to Alexa 350, 488 or 500 are used (1/500, Life Technologies, Inc., Gaithersburg, Md., USA). Phalloidin conjugated to Alexa Fluor 555 (1/500, EnzoLifeTechnologies) is used to stain F-actin.
Images are acquired with an Axio-observer Zl (Zeiss, Germany) fitted with a cooled CCD camera (CoolsnapHQ2, Ropert Scientific). The microscope is controlled with Metamorph and Micro-manager software. Images were analyzed using ImageJ software.

With `CC(C)[C@H](NC(=O)c1ccc2ccccc2n1)C(=O)N[C@@H](CC(=O)O)C(=O)N[C@H](C(=O)N1CC[C@H](CC(C)(C)C)[C@H]1C(=O)N[C@@H](CC(=O)O)C(=O)COc1c(F)cccc1F)C(C)C` (single isomer, unassigned) [Compound 2 enantiomer a] the “Synapse protection toward Amyloid beta peptide [1-42] oligomers toxicity (FIG. 1)” value (pretreated at 0.1 μM or 1 μM, Aβ[1-42] oligomers 10 nM, **p<0.01) was “Synapse protection”.
In the case of `CC(C)[C@H](NC(=O)c1ccc2ccccc2n1)C(=O)N[C@@H](CC(=O)O)C(=O)N[C@H](C(=O)N1CC[C@H](CC(C)(C)C)[C@H]1C(=O)N[C@@H](CC(=O)O)C(=O)OCc1cncs1)C(C)C` [Compound 3, (S)-4-(((S)-1-((2S,3S)-2-(((S)-3-carboxy-1-oxo-1-(thiazol-5 - ylmethoxy)propan-2-yl)carbamoyl)-3-neopenthylpyrrolidin-1-yl)-3-methyl-1-oxobutan-2-yl)amino)-3-((S)-3-methyl-2-(quinoline-2-carboxamido)butanamido)-4-oxobutanoic acid] (Quinaldoyl-VDV[Pro(3S-CH2tBu)]D-X1), the “Protective effect against Aβ toxicity” value was “+”.
`CC(C)[C@H](NC(=O)c1ccc2ccccc2n1)C(=O)N[C@@H](CC(=O)O)C(=O)N[C@H](C(=O)N1CC[C@H](CC(C)(C)C)[C@H]1C(=O)NN(CC(=O)O)C(=O)COc1c(F)cccc1F)C(C)C` [Compound 4, (S)-4-(((S)-1-((2S,3S)-2-(2-(carboxymethyl)-2-(2-(2,6-difluorophenoxy)acetyl)hydrazinecarbonyl)-3-neopentylpyrrolidin-1-yl)-3-methyl-1-oxobutan-2-yl)amino)-3-((S)-3-methyl-2-(quinoline-2-carboxamido)butanamido)-4-oxobutanoic acid] (Quinaldoyl-VDV[Pro(3S-CH2tBu)]-X3) was tested, and the “Protective effect against Aβ toxicity” value was “+”.
In the case of `CC(C)[C@H](NC(=O)c1ccc2ccccc2n1)C(=O)N[C@@H](CC(=O)O)C(=O)N[C@H](C(=O)N1CC[C@H](CC(C)(C)C)[C@H]1C(=O)NN(CC(=O)O)C(=O)/C=C/C(=O)N(C)Cc1ccccc1)C(C)C` [Compound 5, (S)-4-(((S)-1-((2S,3S)-2-(2-((E)-4-(benzyl(methyl)amino)-4-oxobut-2-enoyl)-2-(carboxymethyl)hydrazinecarbonyl)-3-neopentylpyrrolidin-1-yl)-3-methyl-1-oxobutan-2-yl)amino)-3-((S)-3-methyl-2-(quinoline-2-carboxamido)butanamido)-4-oxobutanoic acid] (Quinaldoyl-VDV[Pro(3S-CH2tBu)]-X4), the “Protective effect against Aβ toxicity” value was “+”.
With `CC(C)[C@H](NC(=O)[C@H](CC(=O)O)NC(=O)C(=O)Nc1ccccc1C(C)(C)C)C(=O)N1CC[C@H](CC(C)(C)C)[C@H]1C(=O)NN(CC(=O)O)C(=O)COc1c(F)cccc1F` [Compound 6, (S)-3-(2-((2-(tert-butyl)phenyl)amino)-2-oxoacetamido)-4-(((S)-1-((2S,3S)-2-(2-(carboxymethyl)-2-(2-(2,6-difluorophenoxy)acetyl)hydrazinecarbonyl)-3-neopentylpyrrolidin-1-yl)-3-methyl-1-oxobutan-2-yl)amino)-4-oxobutanoic acid] the “Protective effect against Aβ toxicity” value was “+”.
